Measurements published in patent publication US8039619B2, “Process for preparing (2R,3S/2S,3R)-2-(2,4-difluorophenyl)-3-(5-fluoropyrimidin-4-yl)-1-(1H-1,2,4-triazol-1-yl)butan-2-ol” (Dr. Reddy's Laboratories Limited, priority 2004, dated 2011).
Values after ≈ are worked out from the molar mass of the structure shown.

Assay: Solubility comparison at room temperature
Format: physicochemical
Settings: organic solvent or mixture
Excerpt: Solubility comparison at room temperature (values in mg/l): […]

C[C@@H](c1ncncc1F)[C@](O)(Cn1cncn1)c1ccc(F)cc1F [Crystalline Form B, (2R,3S)-2-(2,4-diflurophenyl)-3-(5-fluoropyrimidin-4-yl)-1-(1H-1,2,4-triazol-1-yl) -butan-2-ol]
solubility (Acetone): 250 µg/mL (≈ 716 µM) | solubility (Methanol): 125 µg/mL (≈ 358 µM)
